Assay results from US20200022995A1, “Novel Immunodulating Small Molecules” (AyuVis Research, Inc., priority 2018, published 2020).

Assays:
neonatal pups with BPD = assay: Hyperoxia mouse model of BPD (newborn pups); assay type: in vivo
Description: Neonatal mice and humans undergo similar stages of lung development but differ with respect to the duration of each stage and its temporal relationship to gestational age. The lungs of the mouse born at term are in the saccular stage and are surfactant sufficient; this can be considered somewhat akin to a human preterm neonate in the same stage of lung development that has been exposed to a full complement of antenatal steroids (which is known to enhance surfactant production). In terms of mimicking the human condition, the most successful hyperoxia models are those that limit exposure to hyperoxia to the saccular stage of pulmonary development. The mouse BPD model involves exposing newborn mice (postnatal day 1 or PN1) to 100% oxygen till PN4 followed by recovery in room air (RA) for another 10 days.
After the recovery period, their lungs were harvested and processed for quantitative PCR, western blotting, histopathology and ELISA.
Each of the compounds 3, 8 or 32 encapsulated in PLGA nanoparticles referred as 3NP, 8NP and 32NP was instilled intranasally (IN) as nanosuspension to newborn pups on PN2 and PN4 at different doses (FIG. 28). After the recovery period, their lungs were harvested and processed for quantitative PCR, western blotting and histopathology and ELISA.
BPD is characterized by large simplified alveoli, inflammation, increased cell death, decreased cell proliferation, dysmorphic capillary configuration, and variable interstitial cellularity and/or fibroproliferation. […] This is determined by measuring the alveolar chord length, septal thickness and radial alveolar count (RAC). In BPD, the alveolar area increases which is characterized by increase in the diameter of the alveolar sacs, the septa become thickened (thus interfering in gaseous exchange) and the RAC, a parameter used to assess the complexity of terminal respiratory unit by pulmonologists, decreases as a result of arrested lung development.

TLR4 = TLR4 (Homo sapiens, UniProt O00206); assay: TLR4 inhibitory and activating activity in THP-1 cells; assay type: cell-based; set-up: endogenous in cells; host or cells: THP-1 monocytes, PMA-stimulated
TLR4, sequence (O00206 24-839): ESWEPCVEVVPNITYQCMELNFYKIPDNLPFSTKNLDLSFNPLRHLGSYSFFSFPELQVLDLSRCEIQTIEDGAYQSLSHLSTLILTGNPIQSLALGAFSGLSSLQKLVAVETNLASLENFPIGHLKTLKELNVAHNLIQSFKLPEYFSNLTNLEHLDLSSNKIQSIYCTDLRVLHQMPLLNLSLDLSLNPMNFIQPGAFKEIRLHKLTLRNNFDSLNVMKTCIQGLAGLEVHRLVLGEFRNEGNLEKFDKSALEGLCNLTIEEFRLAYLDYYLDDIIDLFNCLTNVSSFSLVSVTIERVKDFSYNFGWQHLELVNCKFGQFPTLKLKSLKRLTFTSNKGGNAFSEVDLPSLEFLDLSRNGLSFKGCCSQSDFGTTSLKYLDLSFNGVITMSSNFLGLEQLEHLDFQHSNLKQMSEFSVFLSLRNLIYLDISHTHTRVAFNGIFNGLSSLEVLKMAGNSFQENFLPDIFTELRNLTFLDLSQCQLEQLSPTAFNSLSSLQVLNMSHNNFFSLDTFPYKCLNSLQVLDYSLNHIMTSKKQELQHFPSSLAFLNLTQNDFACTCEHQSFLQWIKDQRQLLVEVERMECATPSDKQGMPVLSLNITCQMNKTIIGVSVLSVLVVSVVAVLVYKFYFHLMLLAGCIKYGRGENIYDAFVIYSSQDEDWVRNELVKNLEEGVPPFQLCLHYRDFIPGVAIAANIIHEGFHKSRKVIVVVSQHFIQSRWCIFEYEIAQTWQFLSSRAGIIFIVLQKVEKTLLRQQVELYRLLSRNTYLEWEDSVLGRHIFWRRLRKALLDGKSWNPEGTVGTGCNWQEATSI

HUVECs [1] = assay: Cytotoxicity in HUVECs (MTT); assay type: cell-based, human; settings: 100 μM, 24 h
Procedure: Selected TLR2/4 antagonist compounds 2, 6, 7, 8, 14, 17 and 32 were evaluated for cytotoxicity in HUVECs at 100 μM concentration. The cells were treated with compounds and incubated for 24 h. Cell viability was assessed using MTT cell proliferation kit (Promega). All the compounds were not toxic to HUVECs (FIG. 15).

TLR7/8 = assay: IL-1β ELISA in hPBMC, alone or with TLR7/8 ligand CL075; assay type: cell-based, human
Description: Compound 8 modulates the TLR7/8 activities in a concentration dependent manner.

hPBMC = assay: Cytotoxicity in hPBMC (MTT); assay type: cell-based, human; settings: 0.1, 1.0, 10, 100 and 1000 μM, 24 h
Procedure: The cells were treated with compounds and incubated for 24 h. Cell viability was assessed using MTT cell proliferation kit (Promega). All the compounds were not toxic to hPMBC (FIG. 12).

THP-1 cells = assay: Monocyte differentiation, phagocytosis and intracellular killing of Pseudomonas aeruginosa in THP-1 cells; assay type: cell-based, human
Description: Two of these compounds 8 and 32 stimulated monocyte differentiation into macrophages, increased phagocytosis of Pseudomonas aeruginosa (FIG. 18) and increased intracellular killing of bacteria (FIG. 19). These compounds have potential to be used as vaccine adjuvants and in combination with existing antibiotic for prophylactic treatment such as in cystic fibrosis patients.

HUVECs [2] = assay: Anti-angiogenic activity, VEGF induced tube formation in HUVECs; assay type: cell-based, human; settings: VEGF 100 ng/mL
Procedure: Selected TLR2/4 antagonist compounds 2, 6, 7, 8, 14, 17 and 32 were evaluated for anti-angiogenic activity using the Tube Formation kit (Cat #3470-096-K). VEGF (100 ng/mL) was used as positive control. These compounds have potential applications in diseases associated with pathological angiogenesis such as solid tumor, […], diabetic retinopathy as well as AMD.

[3] = test system: P. aeruginosa (ATCC-10145 GFP) infected skin wounds; assay: Murine skin wound infection with P. aeruginosa; assay type: in vivo, C57BL/6 mice
Procedure: Five groups of C57BL/6 mice (8-10 weeks old, n=4) were wounded on the dorsal surface. 25 ul containing 10^6 CFU/mL P. aeruginosa in a PBS suspension were pipetted onto the wound and allowed to absorb for at least 3 min. […] Subsequently and for the next 13 days, infected wounds were treated each alternate day with colistin, or with test compounds.

CC(=O)N[C@H]1[C@H](Oc2ccc([N+](=O)[O-])cc2)O[C@H](CO)[C@@H](O)[C@@H]1O [Compound 8, p-Nitrophenyl 2-acetamido-2-deoxy-β-D-glucopyranoside]
anti-inflammatory cytokine IL-10 (neonatal pups with BPD; 10 mg/kg, ELISA): increase
inflammatory cytokines and chemokines (MIP-2, MCP-1, IL-17, IFN-Y, TNF-α, IL-1β, and IL-6) (neonatal pups with BPD; 10 mg/kg, ELISA): decreases
lung injury in neonatal pups with BPD (neonatal pups with BPD; mouse model of BPD): prevent lung injury
TLR4 inhibition in an in vivo model system (neonatal pups with BPD; neonatal pups with BPD): inhibit TLR4
lung architecture (neonatal pups with BPD; saline IV and nanosuspension IN): restored
TLR2/4 antagonist or TLR4 agonist activity as shown in Table-1 (TLR4): potent TLR2/4 antagonists
cytotoxicity in HUVECs (HUVECs [1]): not toxic
IL-1β protein level (TLR7/8; 0.1 μM to <1 μM, alone or with CL075, hPBMC, 24 h, ELISA): downregulate
production of IL-1β (TLR7/8; 1.0 μM, alone and with CL075, hPBMC): significantly stimulated
cytotoxicity in hPBMC (hPBMC): not toxic
monocyte differentiation into macrophages (THP-1 cells): stimulated
intracellular killing of bacteria (THP-1 cells; Pseudomonas aeruginosa, THP-1 cells): increased
phagocytosis of Pseudomonas aeruginosa (THP-1 cells; THP-1 cells): increased
VEGF induced tube formation (HUVECs [2]): significantly deceased
wound closure at day 13 ([3]; 25 μl Colistin 4 μg/ml or compound 100 μg/ml, each alternate day): complete closure
bacterial numbers versus untreated control ([3]; 13 days post infection): statistically significant reduction
re-epithelialization and granulation tissue versus controls ([3]; H&E histology, day 13 post-injury): borderline non-significant
CFU in tissues ([3]; topical, 100 μM, C57BL6 mice): decreased
closure of P. aeruginosa infected skin wounds ([3]; topical, 100 μM, C57BL6 mice): effectively closed
